Assay results: US6780863B1, “Bis-basic compounds with tryptase-inhibitory activity” (Boehringer Ingelheim Pharma GmbH & Co. KG, priority 1999, dated 2004)

Each molecule was assayed against T1, rh beta tryptase (Homo sapiens, UniProt Q15661) (assay: tryptase inhibition test (cleavage of N-p-tosyl-Gly-Pro-Lys-para-nitroaniline, p-nitroaniline measured at 405 nm)). Details: Tris HCl buffer pH 7.4 with calcium and heparin; substrate 0.6 mM; 5 min pre-incubation, 5 min incubation, 37° C.
T1 construct: purchased Promega
T1 sequence (Q15661 31-275): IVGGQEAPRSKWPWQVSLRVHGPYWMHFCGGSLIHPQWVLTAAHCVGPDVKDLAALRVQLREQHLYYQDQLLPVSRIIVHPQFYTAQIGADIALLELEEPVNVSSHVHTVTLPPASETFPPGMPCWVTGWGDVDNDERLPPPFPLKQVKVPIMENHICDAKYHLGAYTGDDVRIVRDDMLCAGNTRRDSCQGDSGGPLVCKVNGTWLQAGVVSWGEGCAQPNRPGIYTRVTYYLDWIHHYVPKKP
Type: biochemical
Description: The compounds according to the invention are characterised by their tryptase-inhibiting activity. This ability to inhibit tryptase was investigated using the test described below.
The measurement is carried out in Tris HCl buffer (100 mM), which additionally contains calcium (5 mM) and heparin (100 mg/ml), at pH 7.4. The standard used is rh beta tryptase which may be obtained commercially from Promega, for example. The substrate used is N-p-tosyl—Gly-Pro-Lys-para-nitroaniline in a concentration of 0.6 mM. The substrate is digested with tryptase to form p-nitroaniline which can be measured at 405 nm. Usually, an incubation period of 5 minutes and an incubation temperature of 37° C. are chosen. The enzyme activity used is 0.91 U/ml. The measurements are carried out in an Autoanalyser (Cobas Bio) made by Hofmann LaRoche. The potential inhibitory substances are used in concentrations of 10 μM in the screening, the inhibition of the tryptase being given in percent. The IC50 (concentration at which 50% of the enzyme activity is inhibited) is determined at over 70% inhibition. After 5 minutes' pre-incubation of the potential inhibitory substances, the substrate is added to start the reaction, the formation of p-nitroaniline being taken as a measurement of the enzyme activity after 5 minutes, after testing the linearity.

| SMILES | IC50 |
| --- | --- |
| NCc1ccc(OCc2cccc(CNCCCCCNCc3cccc(COc4ccc(CN)cc4)c3)c2)cc1 [Example 7] | 4.3 nM |
| NCc1ccc(OCc2cccc(CNCCc3cccc(NCc4cccc(COc5ccc(CN)cc5)c4)c3)c2)cc1 [Example 10] | 35 nM |
| NCc1ccc(OCc2cccc(CNCC3CCC(CNCc4cccc(COc5ccc(CN)cc5)c4)CC3)c2)cc1 (centres unmarked) [Example 11] | 4 nM |
| CC(C)(CCC(C)(C)NCc1cccc(COc2ccc(CN)cc2)c1)NCc1cccc(COc2ccc(CN)cc2)c1 [Example 14] | 13 nM |
| NCc1ccc(OCc2cccc(CNCc3cccc(CNCc4cccc(COc5ccc(CN)cc5)c4)c3)c2)cc1 [Example 15] | 23 nM |
| NCc1ccc(OCc2cccc(CNCc3ccc(CNCc4cccc(COc5ccc(CN)cc5)c4)cc3)c2)cc1 [Example 16] | 12 nM |
| CC1(NCc2cccc(COc3ccc(CN)cc3)c2)CCC(C(C)(C)NCc2cccc(COc3ccc(CN)cc3)c2)CC1 (centres unmarked) [Example 18] | 10.7 nM |
| NCc1ccc(OCc2cccc(CNC3CCC(CC4CCC(NCc5cccc(COc6ccc(CN)cc6)c5)CC4)CC3)c2)cc1 (centres unmarked) [Example 19] | 10 nM |
| NCc1ccc(OCc2cccc(CNCC3CCCC(CNCc4cccc(COc5ccc(CN)cc5)c4)C3)c2)cc1 (centres unmarked) [Example 20] | 7.1 nM |
| CN(CCCCCCN(C)Cc1cccc(COc2ccc(C(=N)N)cc2)c1)Cc1cccc(COc2ccc(C(=N)N)cc2)c1 [Example 24] | 3.1 nM |
| N=C(N)c1ccc(OCc2cccc(CNCc3cccc(CNCc4cccc(COc5ccc(C(=N)N)cc5)c4)c3)c2)cc1 [Example 28] | 5.3 nM |
| CCCCN(CCCCCCN(CCCC)Cc1cccc(COc2ccc(C(=N)N)cc2)c1)Cc1cccc(COc2ccc(C(=N)N)cc2)c1 [Example 30] | 6.8 nM |
| CN(CCCCCCN(C)Cc1cccc(COc2ccc(CN)cc2)c1)Cc1cccc(COc2ccc(CN)cc2)c1 [Example 31] | 13 nM |
| N=C(N)c1ccc(OCc2cccc(CNCCCCC(NCc3cccc(COc4ccc(C(=N)N)cc4)c3)C(=O)O)c2)cc1 (centres unmarked) [Example 32] | 32.4 nM |
| CC(C)(CCCCC(C)(C)NCc1cccc(COc2ccc(C(=N)N)cc2)c1)NCc1cccc(COc2ccc(C(=N)N)cc2)c1 [Example 33] | 2.5 nM |
| CN(Cc1ccc(CN(C)Cc2cccc(COc3ccc(CCN)cc3)c2)cc1)Cc1cccc(COc2ccc(CCN)cc2)c1 [Example 35] | 31.6 nM |
| N=C(N)c1ccc(OCc2cccc(CNCCOCCNCc3cccc(COc4ccc(C(=N)N)cc4)c3)c2)cc1 [Example 39] | 12 nM |
| CC1(NCc2cccc(COc3ccc(C(=N)N)cc3)c2)CCC(C(C)(C)NCc2cccc(COc3ccc(C(=N)N)cc3)c2)CC1 (centres unmarked) [Example 40] | 5 nM |
| NCCc1ccc(OCc2cccc(CN3CCC(C4CCN(Cc5cccc(COc6ccc(CCN)cc6)c5)CC4)CC3)c2)cc1 [Example 42] | 30.9 nM |
| N=C(N)c1ccc(OCc2cccc(COCc3ccc(COCc4cccc(COc5ccc(C(=N)N)cc5)c4)cc3)c2)cc1 [Example 56] | 19 nM |
| N=C(N)c1ccc(OCc2cccc(CN(Cc3ccc(CN(Cc4cccc(COc5ccc(C(=N)N)cc5)c4)C4CC4)cc3)C3CC3)c2)cc1 [Example 62] | 41 nM |
| NCc1ccc(OCc2cccc(CN3CCC(C4CCN(Cc5cccc(COc6ccc(CN)cc6)c5)CC4)CC3)c2)cc1 [Example 68] | 2.5 nM |

Stronger by IC50, values ahead:

| IC50 | SMILES |
| --- | --- |
| 1.4 nM | N=C(N)c1ccc(OCc2cccc(CNCCCCCNCc3cccc(COc4ccc(C(=N)N)cc4)c3)c2)cc1 [Example 17] |
| 1.1 nM | N=C(N)c1ccc(OCc2cccc(CNCCCCCCCNCc3cccc(COc4ccc(C(=N)N)cc4)c3)c2)cc1 [Example 23] |
| 1.2 nM | N=C(N)c1ccc(OCc2cccc(CNCCCCCCNCc3cccc(COc4ccc(C(=N)N)cc4)c3)c2)cc1 [Example 25] |
| 0.8 nM | N=C(N)c1ccc(OCc2cccc(CNCC3CCC(CNCc4cccc(COc5ccc(C(=N)N)cc5)c4)CC3)c2)cc1 (centres unmarked) [Example 26] |
| 1.7 nM | CC(C)(CCC(C)(C)NCc1cccc(COc2ccc(C(=N)N)cc2)c1)NCc1cccc(COc2ccc(C(=N)N)cc2)c1 [Example 27] |
| 1.7 nM | N=C(N)c1ccc(OCc2cccc(CNCc3ccc(CNCc4cccc(COc5ccc(C(=N)N)cc5)c4)cc3)c2)cc1 [Example 29] |
| 0.8 nM | N=C(N)c1ccc(OCc2cccc(CN3CCC(C4CCN(Cc5cccc(COc6ccc(C(=N)N)cc6)c5)CC4)CC3)c2)cc1 [Example 34] |
| 0.74 nM | N=C(N)c1ccc(OCc2ccc(CNCCCCCCNCc3ccc(COc4ccc(C(=N)N)cc4)cc3)cc2)cc1 [Example 63] |
| 1.1 nM | N=C(N)c1ccc(OCc2ccc(CN3CCC(C4CCN(Cc5ccc(COc6ccc(C(=N)N)cc6)cc5)CC4)CC3)cc2)cc1 [Example 64] |
| 0.59 nM | N=C(N)c1ccc(OCc2ccc(CNCc3ccc(CNCc4ccc(COc5ccc(C(=N)N)cc5)cc4)cc3)cc2)cc1 [Example 65] |
